ChEMBL document CHEMBL4433199, “First-in-class allosteric inhibitors of bacterial IMPDHs” (Eur J Med Chem, 2019)
pIC50: −log10 of the molar value. Activity calls are given as the source filed them. The rule behind the calls is not given here.

Columns and labels:
[1] = target: T1, Inosine-5'-monophosphate dehydrogenase (Pseudomonas aeruginosa (strain ATCC 15692 / DSM 22644 / CIP 104116 / JCM14847 / LMG 12228 / 1C / PRS 101 / PAO1)) (UniProt Q9HXM5); assay: Inhibition of Pseudomonas aeruginosa IMPDH at 37.1 uM using IMP as substrate in the presence of NAD+ incubated for 70 secs relative to control
T1 sequence (whole entry): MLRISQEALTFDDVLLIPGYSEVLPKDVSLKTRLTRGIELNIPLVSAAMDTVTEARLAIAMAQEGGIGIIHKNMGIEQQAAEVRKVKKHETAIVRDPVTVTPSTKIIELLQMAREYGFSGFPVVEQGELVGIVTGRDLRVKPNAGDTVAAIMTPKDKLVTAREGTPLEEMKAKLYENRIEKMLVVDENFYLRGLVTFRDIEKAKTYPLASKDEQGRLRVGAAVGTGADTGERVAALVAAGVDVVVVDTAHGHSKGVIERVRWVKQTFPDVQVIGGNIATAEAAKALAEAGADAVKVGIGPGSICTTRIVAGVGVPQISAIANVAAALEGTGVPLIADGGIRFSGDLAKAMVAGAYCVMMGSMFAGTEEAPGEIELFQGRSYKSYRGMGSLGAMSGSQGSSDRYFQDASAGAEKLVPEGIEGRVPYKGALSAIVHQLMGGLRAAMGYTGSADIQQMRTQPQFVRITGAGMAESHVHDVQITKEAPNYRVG

[2] = target: T1, Inosine-5'-monophosphate dehydrogenase (Pseudomonas aeruginosa (strain ATCC 15692 / DSM 22644 / CIP 104116 / JCM14847 / LMG 12228 / 1C / PRS 101 / PAO1)); assay: Inhibition of Pseudomonas aeruginosa IMPDH assessed as Km for IMP at 10 uM using IMP as substrate in presence of 2 mM NAD+ and 0.2 mM MgATP (reference value: 483 +/- 65 microM)
[3] = target: T2, Inosine-5'-monophosphate dehydrogenase (Pseudomonas aeruginosa (strain ATCC 15692 / DSM 22644 / CIP 104116 / JCM14847 / LMG 12228 / 1C / PRS 101 / PAO1), UniProt Q9HXM5); assay: Inhibition of Pseudomonas aeruginosa IMPDH using IMP as substrate in the presence of NAD+ incubated for 70 secs; settings: for pIC50: read-out: IC50
T2 sequence (Q9HXM5 whole entry): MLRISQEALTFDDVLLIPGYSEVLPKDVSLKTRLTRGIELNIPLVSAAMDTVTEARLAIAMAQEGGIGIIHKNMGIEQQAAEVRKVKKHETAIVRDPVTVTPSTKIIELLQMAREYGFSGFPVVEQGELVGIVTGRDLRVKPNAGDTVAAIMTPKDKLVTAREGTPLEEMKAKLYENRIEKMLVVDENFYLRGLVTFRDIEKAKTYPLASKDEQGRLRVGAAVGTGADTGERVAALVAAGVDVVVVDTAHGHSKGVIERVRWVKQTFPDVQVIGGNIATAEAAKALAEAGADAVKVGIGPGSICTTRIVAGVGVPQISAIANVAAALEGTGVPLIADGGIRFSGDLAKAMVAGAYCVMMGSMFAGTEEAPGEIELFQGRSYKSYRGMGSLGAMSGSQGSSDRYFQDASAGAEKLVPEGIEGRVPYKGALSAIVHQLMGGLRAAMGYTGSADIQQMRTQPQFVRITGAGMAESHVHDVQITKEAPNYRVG

[4] = target: T1, Inosine-5'-monophosphate dehydrogenase (Pseudomonas aeruginosa (strain ATCC 15692 / DSM 22644 / CIP 104116 / JCM14847 / LMG 12228 / 1C / PRS 101 / PAO1)); assay: Competitive inhibition of Pseudomonas aeruginosa IMPDH using IMP as substrate and NAD+ in presence of varying ATP incubated for 70 secs
[5] = target: T1, Inosine-5'-monophosphate dehydrogenase (Pseudomonas aeruginosa (strain ATCC 15692 / DSM 22644 / CIP 104116 / JCM14847 / LMG 12228 / 1C / PRS 101 / PAO1)); assay: Inhibition of Pseudomonas aeruginosa IMPDH at 50.8 uM using IMP as substrate in the presence of NAD+ incubated for 70 secs relative to control
[6] = target: T1, Inosine-5'-monophosphate dehydrogenase (Pseudomonas aeruginosa (strain ATCC 15692 / DSM 22644 / CIP 104116 / JCM14847 / LMG 12228 / 1C / PRS 101 / PAO1)); assay: Non-competitive inhibition of Pseudomonas aeruginosa IMPDH using IMP as substrate and NAD+ in presence of ATP incubated for 70 secs
[7] = target: T1, Inosine-5'-monophosphate dehydrogenase (Pseudomonas aeruginosa (strain ATCC 15692 / DSM 22644 / CIP 104116 / JCM14847 / LMG 12228 / 1C / PRS 101 / PAO1)); assay: Inhibition of Pseudomonas aeruginosa IMPDH at 54.6 uM using IMP as substrate in the presence of NAD+ incubated for 70 secs relative to control
[8] = target: T1, Inosine-5'-monophosphate dehydrogenase (Pseudomonas aeruginosa (strain ATCC 15692 / DSM 22644 / CIP 104116 / JCM14847 / LMG 12228 / 1C / PRS 101 / PAO1)); assay: Inhibition of Pseudomonas aeruginosa IMPDH at 42.9 uM using IMP as substrate in the presence of NAD+ incubated for 70 secs relative to control
[9] = target: T1, Inosine-5'-monophosphate dehydrogenase (Pseudomonas aeruginosa (strain ATCC 15692 / DSM 22644 / CIP 104116 / JCM14847 / LMG 12228 / 1C / PRS 101 / PAO1)); assay: Inhibition of Pseudomonas aeruginosa IMPDH at 57.4 uM using IMP as substrate in the presence of NAD+ incubated for 70 secs relative to control
[10] = target: T1, Inosine-5'-monophosphate dehydrogenase (Pseudomonas aeruginosa (strain ATCC 15692 / DSM 22644 / CIP 104116 / JCM14847 / LMG 12228 / 1C / PRS 101 / PAO1)); assay: Inhibition of Pseudomonas aeruginosa IMPDH at 44.7 uM using IMP as substrate in the presence of NAD+ incubated for 70 secs relative to control
[11] = target: T1, Inosine-5'-monophosphate dehydrogenase (Pseudomonas aeruginosa (strain ATCC 15692 / DSM 22644 / CIP 104116 / JCM14847 / LMG 12228 / 1C / PRS 101 / PAO1)); assay: Inhibition of Pseudomonas aeruginosa IMPDH assessed as Km for IMP at 20 uM using IMP as substrate in presence of 2 mM NAD+ and 0.2 mM MgATP (reference value: 483 +/- 65 microM)
[12] = target: T1, Inosine-5'-monophosphate dehydrogenase (Pseudomonas aeruginosa (strain ATCC 15692 / DSM 22644 / CIP 104116 / JCM14847 / LMG 12228 / 1C / PRS 101 / PAO1)); assay: Inhibition of Pseudomonas aeruginosa IMPDH at 47.2 uM using IMP as substrate in the presence of NAD+ incubated for 70 secs relative to control
[13] = target: T1, Inosine-5'-monophosphate dehydrogenase (Pseudomonas aeruginosa (strain ATCC 15692 / DSM 22644 / CIP 104116 / JCM14847 / LMG 12228 / 1C / PRS 101 / PAO1)); assay: Inhibition of Pseudomonas aeruginosa IMPDH at 43.1 uM using IMP as substrate in the presence of NAD+ incubated for 70 secs relative to control
[14] = target: T1, Inosine-5'-monophosphate dehydrogenase (Pseudomonas aeruginosa (strain ATCC 15692 / DSM 22644 / CIP 104116 / JCM14847 / LMG 12228 / 1C / PRS 101 / PAO1)); assay: Competitive inhibition of Pseudomonas aeruginosa IMPDH using IMP as substrate at varying levels and NAD+ in presence of ATP incubated for 70 secs
[15] = target: T1, Inosine-5'-monophosphate dehydrogenase (Pseudomonas aeruginosa (strain ATCC 15692 / DSM 22644 / CIP 104116 / JCM14847 / LMG 12228 / 1C / PRS 101 / PAO1)); assay: Inhibition of Pseudomonas aeruginosa IMPDH at 35.1 uM using IMP as substrate in the presence of NAD+ incubated for 70 secs relative to control
[16] = target: T1, Inosine-5'-monophosphate dehydrogenase (Pseudomonas aeruginosa (strain ATCC 15692 / DSM 22644 / CIP 104116 / JCM14847 / LMG 12228 / 1C / PRS 101 / PAO1)); assay: Inhibition of Pseudomonas aeruginosa IMPDH at 18.2 uM using IMP as substrate in the presence of NAD+ incubated for 70 secs relative to control
[17] = target: T1, Inosine-5'-monophosphate dehydrogenase (Pseudomonas aeruginosa (strain ATCC 15692 / DSM 22644 / CIP 104116 / JCM14847 / LMG 12228 / 1C / PRS 101 / PAO1)); assay: Inhibition of Pseudomonas aeruginosa IMPDH at 48.2 uM using IMP as substrate in the presence of NAD+ incubated for 70 secs relative to control

## CC(=O)Nc1ccc(C2C3=C(Nc4c2c(=O)[nH]c(=O)n4Cc2ccccc2)c2ccccc2C3=O)cc1 (configuration not stated)
[1]
  inhibition: 93.8%
[2]
  K0.5: 1310 µM
[3]
  pIC50: 5.55
[4]
  inhibition: Active

## COc1ccccc1-c1noc(CCC(=O)Nc2ccc(Cl)cc2)n1
[3]
  pIC50: 5.59
[5]
  inhibition: 70.6%
[6]
  inhibition: Active

## N#CC1=C(N)Oc2[nH]c(=O)[nH]c(=O)c2C1c1ccc([N+](=O)[O-])s1 (configuration not stated)
[3]
  pIC50: 5.40
[7]
  inhibition: 85.7%
[4]
  inhibition: Active

## CCc1oc2ccccc2c1C(=O)c1cc(Br)c(O)c(Br)c1 [BENZBROMARONE]
[3]
  pIC50: 4.26
[8]
  inhibition: 73.3%

## N#CC1=C(N)Oc2[nH]c(=O)[nH]c(=O)c2C1c1ccc(Cl)cc1 (configuration not stated)
[9]
  inhibition: 89.3%
[3]
  pIC50: 5.40
[4]
  inhibition: Active

## CC(=O)Nc1ccc(-c2cc(C(=O)O)nc3[nH]nc(-c4ccc(Cl)cc4)c23)cc1
[3]
  pIC50: 4.72
[4]
  inhibition: Active
[10]
  inhibition: 73.2%

## CC(=O)N1CCOc2cc(S(=O)(=O)Nc3ccc(F)c(Cl)c3)ccc21
[11]
  K0.5: 747 µM
[3]
  pIC50: 4.77
[4]
  inhibition: Active
[12]
  inhibition: 81.5%

## CN(Cc1ccccc1)Cc1nc2c(c(=O)n(C)c(=O)n2C)n1Cc1ccccc1F
[13]
  inhibition: 93.3%
[3]
  IC50: Not Active

## Cc1cc2c(C(C)C)c(O)c(O)c(C=O)c2c(O)c1-c1c(C)cc2c(C(C)C)c(O)c(O)c(C=O)c2c1O [GOSSYPOL]
[14]
  inhibition: Active
[3]
  pIC50: 6.05
[15]
  inhibition: 100%

## COc1cc(-c2ccc(/N=N/c3ccc4c(S(=O)(=O)O)cc(S(=O)(=O)O)c(N)c4c3O)c(OC)c2)ccc1/N=N/c1ccc2c(S(=O)(=O)O)cc(S(=O)(=O)O)c(N)c2c1O [CHICAGO SKY BLUE SODIUM]
[16]
  inhibition: 92.2%
[3]
  pIC50: 5.80
[4]
  inhibition: Active

## Cc1ccc(-n2c(=O)[nH]cc(C(=O)Nc3ccc(C(C)C)cc3)c2=O)cc1C
[3]
  IC50: Not Active
[17]
  inhibition: 75.4%
